Source: patent US20150141248A1, “ANTIFUNGAL COMPOSITIONS” (DSM IP ASSETS B.V., priority 2011, published 2015)

Columns and labels:
Fusarium proliferatum [1] = test: Treatment of wounded bananas inoculated with Fusarium proliferatum (mould growth); format: in vivo; conditions: for Number of moulded wounds/total number of 12 wounds: bananas 20° C.; for Observed antifungal activity O: bananas
Description: Four organic, unripe (green) bananas were used per treatment. The peel of each banana was wounded thrice using a cork borer according to the method described by de Lapeyre de Bellaire and Dubois (1987). Subsequently, each wound was inoculated with 15 μl of a Fusarium proliferatum suspension containing 1×10^5 of spores/ml. […] In addition, the antifungal compositions comprised 1.00% (w/w) methylhydroxyethylcellulose (MHEC), 0.40% (w/w) xanthan gum, 0.20% (w/w) anti-foaming agent, 0.30% (w/w) citric acid, 0.39% (w/w) lactic acid and 0.11% (w/w) potassium sorbate. The pH of the composition was 4.0. […] The treated, unripe bananas were incubated in a closed box in the dark at 20° C. and a relative air humidity of 95%, which was obtained in the presence of a saturated Na2HPO4 aqueous solution. During the first 20 days of incubation, a ripe (yellow) banana was included in the closed box to elevate the ethylene gas level and thus induce ripening of the treated, unripe bananas. […]
The expected antifungal activity (E in %) of the combined antifungal composition comprising both active ingredients was calculated according to the Colby equation (Colby, 1967): […]
wherein X and Y are the observed antifungal activities (in %) of the individual active ingredients X and Y, respectively. If the observed antifungal activity (O in %) of the combination exceeds the expected antifungal activity (E in %) of the combination and the synergy factor O/E is thus >1.0, the combined application of the active ingredients leads to a synergistic antifungal effect.

Fusarium proliferatum [2] = test: In vitro antifungal activity, 96-well microtiter plates; format: cell-based; conditions: in vitro 25° C., natamycin 2.5 ppm
Description: Subsequently, 100 μl of a Botrytis cinerea suspension prepared in PCB medium was used to inoculated each well with 2.5×10^3 spores/ml.
, the in vitro antifungal activity (%) of the individual active ingredients was assessed by calculating the reduction in mould growth observed in the presence of the active ingredient in comparison to the mould growth observed in the absence of the active ingredient. The expected antifungal activity (E in %) of the active ingredient combination was calculated according to the Colby equation (Colby, 1967): […]
The experiment was conducted as described in Example 13, except for the fact that the following compositions were tested:
Furthermore, Fusarium proliferatum was used for inoculation. The antifungal activity (in %) of the individual and combined active ingredients was determined according to the method described in Example 13.

Botrytis cinerea [3] = test: Treatment of wounded strawberries inoculated with Botrytis cinerea (mould growth); format: in vivo; conditions: 250 ppm natamycin; for Number of moulded wounds/total number of 12 wounds (title: Number of moulded strawberries): strawberries 20° C.; for Observed antifungal activity O: strawberries
Description: Twelve fresh, organic strawberries were used per treatment. Each strawberry was wounded with a 0.5 mm long cut and each wound was inoculated with 10 μl of a Botrytis cinerea suspension containing 1×10^5 of spores/ml. […] The antifungal compositions also comprised 1.00% (w/w) methylhydroxyethylcellulose (MHEC), 0.40% (w/w) xanthan gum, 0.20% (w/w) anti-foaming agent, 0.30% (w/w) citric acid, 0.39% (w/w) lactic acid and 0.11% (w/w) potassium sorbate. The pH of the composition was 4.0. A composition without natamycin or prothioconazole was used as control. The treated strawberries were incubated in a closed box in the dark at 20° C. for 3 days.
After 2 and 3 days of incubation, the mould growth on the strawberries was assessed in a twofold manner: (i) the number of moulded strawberries per total of 12 strawberries was counted; and (ii) the antifungal activity (in %) of the individual and combined active ingredients was determined by calculating the reduction in mould growth observed on the strawberries treated with the antifungal composition in comparison to the mould growth on the strawberries treated with the control composition according to the Colby method described in Example 4 (Colby, 1967).

Botrytis cinerea [4] = test: In vitro antifungal activity, 96-well microtiter plates; format: cell-based; conditions: in vitro 25° C.
Description: The following compositions were tested: […] Subsequently, 100 μl of a Botrytis cinerea suspension prepared in PCB medium was used to inoculated each well with 2.5×10^3 spores/ml. […] The expected antifungal activity (E in %) of the active ingredient combination was calculated according to the Colby equation (Colby, 1967): […] wherein X and Y are the observed antifungal activities (in %) of the individual active ingredients X and Y, respectively.

Penicillium italicum = test: Treatment of wounded mandarins inoculated with Penicillium italicum (mould growth); format: in vivo
Description: Ten fresh, organic mandarins were used per treatment. The peel of each mandarin was wounded once using a cork borer according to the method described by de Lapeyre de Bellaire and Dubois (1987). Subsequently, each wound was inoculated with 10 μl of a Penicillium italicum suspension containing 1×10^4 of spores/ml. […] The pH of the composition was 4.0. […]

C[C@@H]1C/C=C/C=C/C=C/C=C/[C@H](O[C@@H]2O[C@H](C)[C@@H](O)[C@H](N)[C@@H]2O)C[C@@H]2O[C@](O)(C[C@@H](O)C[C@H]3O[C@@H]3/C=C/C(=O)O1)C[C@H](O)[C@H]2C(=O)O [Natamycin, natamycin]
Number of moulded wounds/total number of 12 wounds (Fusarium proliferatum [1]; 50 ppm natamycin, 250 ppm propiconazole or both, Day 29): 12/12 | Number of moulded wounds/total number of 12 wounds (Fusarium proliferatum [1]; 50 ppm natamycin, 250 ppm propiconazole or both, Day 32): 12/12 | Number of moulded wounds/total number of 12 wounds (Fusarium proliferatum [1]; 50 ppm natamycin, 250 ppm propiconazole or both, Day 34): 12/12 | Number of moulded wounds/total number of 12 wounds (Fusarium proliferatum [1]; 50 ppm natamycin, 250 ppm propiconazole or both, Day 36): 12/12 | Number of moulded wounds/total number of 12 wounds (Fusarium proliferatum [1]; 50 ppm natamycin, 250 ppm propiconazole or both, Day 39): 12/12 | Number of moulded wounds/total number of 12 wounds (Fusarium proliferatum [1]; 50 ppm natamycin, 250 ppm propiconazole or both, Day 42): 12/12 | Number of moulded wounds/total number of 12 wounds (Fusarium proliferatum [1]; 250 ppm natamycin, 100 ppm prothioconazole or both, Day 27): 12/12 | Number of moulded wounds/total number of 12 wounds (Fusarium proliferatum [1]; 250 ppm natamycin, 100 ppm prothioconazole or both, Day 28 and 29): 12/12 | Number of moulded wounds/total number of 12 wounds (Fusarium proliferatum [1]; 250 ppm natamycin, 500 ppm propiconazole or both, Day 34): 12/12 | Number of moulded wounds/total number of 12 wounds (Fusarium proliferatum [1]; 250 ppm natamycin, 500 ppm propiconazole or both, Day 36): 12/12 | Number of moulded wounds/total number of 12 wounds (Fusarium proliferatum [1]; 500 ppm natamycin, 150 ppm propiconazole or both, Day 26): 8/12 | Number of moulded wounds/total number of 12 wounds (Fusarium proliferatum [1]; 500 ppm natamycin, 150 ppm propiconazole or both, Day 26, listed as natamycin): 8 | Number of moulded wounds/total number of 12 wounds (Fusarium proliferatum [1]; 500 ppm natamycin, 150 ppm propiconazole or both, Days 27-29): 8/12 | Number of moulded wounds/total number of 12 wounds (Fusarium proliferatum [1]; 500 ppm natamycin, 150 ppm propiconazole or both, Days 27-29, listed as natamycin): 8 | Number of moulded wounds/total number of 12 wounds (Fusarium proliferatum [1]; 500 ppm natamycin, 150 ppm propiconazole or both, Days 31-32): 8/12 | Number of moulded wounds/total number of 12 wounds (Fusarium proliferatum [1]; 500 ppm natamycin, 150 ppm propiconazole or both, Days 31-32, listed as natamycin): 8 | Number of moulded wounds/total number of 12 wounds (Fusarium proliferatum [1]; 500 ppm natamycin, 250 ppm prothioconazole or both, Day 27, 28 and 29): 8/12 | Number of moulded wounds/total number of 12 wounds (Fusarium proliferatum [1]; 500 ppm natamycin, 250 ppm prothioconazole or both, Day 27, 28 and 29, listed as natamycin): 8 | Number of moulded wounds/total number of 12 wounds (Fusarium proliferatum [1]; 500 ppm natamycin, 1000 ppm propiconazole or both, Day 39): 12/12 | Number of moulded wounds/total number of 12 wounds (Fusarium proliferatum [1]; 500 ppm natamycin, 1000 ppm propiconazole or both, Day 42): 12/12 | Observed antifungal activity O (Fusarium proliferatum [1]; 50 ppm natamycin, 250 ppm propiconazole or both, 29 days): 4% | Observed antifungal activity O (Fusarium proliferatum [1]; 50 ppm natamycin, 250 ppm propiconazole or both, 32 days): 1% | Observed antifungal activity O (Fusarium proliferatum [1]; 50 ppm natamycin, 250 ppm propiconazole or both, 34 days): 1% | Observed antifungal activity O (Fusarium proliferatum [1]; 50 ppm natamycin, 250 ppm propiconazole or both, 36 days): 0% | Observed antifungal activity O (Fusarium proliferatum [1]; 50 ppm natamycin, 250 ppm propiconazole or both, 39 days): 0% | Observed antifungal activity O (Fusarium proliferatum [1]; 50 ppm natamycin, 250 ppm propiconazole or both, 42 days): 0% | Observed antifungal activity O (Fusarium proliferatum [1]; 250 ppm natamycin, 50 ppm propiconazole or both, 23 days): 23% | Observed antifungal activity O (Fusarium proliferatum [1]; 250 ppm natamycin, 50 ppm propiconazole or both, 27 days): 26% | Observed antifungal activity O (Fusarium proliferatum [1]; 250 ppm natamycin, 50 ppm propiconazole or both, 29 days): 29% | Observed antifungal activity O (Fusarium proliferatum [1]; 250 ppm natamycin, 500 ppm propiconazole or both, 34 days): 0% | Observed antifungal activity O (Fusarium proliferatum [1]; 250 ppm natamycin, 500 ppm propiconazole or both, 36 days): 0% | Observed antifungal activity O (Fusarium proliferatum [1]; 250 ppm natamycin, 500 ppm propiconazole or both, 39 days): 0% | Observed antifungal activity O (Fusarium proliferatum [1]; 250 ppm natamycin, 500 ppm propiconazole or both, 42 days): 0% | Observed antifungal activity O (Fusarium proliferatum [1]; 500 ppm natamycin, 150 ppm propiconazole or both, 27 days): 81% | Observed antifungal activity O (Fusarium proliferatum [1]; 500 ppm natamycin, 150 ppm propiconazole or both, 28 days): 81% | Observed antifungal activity O (Fusarium proliferatum [1]; 500 ppm natamycin, 150 ppm propiconazole or both, 29 days): 81% | Observed antifungal activity O (Fusarium proliferatum [1]; 500 ppm natamycin, 150 ppm propiconazole or both, 31 days): 74% | Observed antifungal activity O (Fusarium proliferatum [1]; 500 ppm natamycin, 150 ppm propiconazole or both, 32 days): 72% | Observed antifungal activity O (Fusarium proliferatum [2]; 3 days, propiconazole 7.5 ppm or both): 0% | Observed antifungal activity O (Fusarium proliferatum [2]; 10 days, prothioconazole 0.5 ppm or both): 0% | Number of moulded wounds/total number of 12 wounds (title: Number of moulded strawberries) (Botrytis cinerea [3]; 500 ppm prothioconazole or both, Day 2): 10/12 | Number of moulded wounds/total number of 12 wounds (title: Number of moulded strawberries) (Botrytis cinerea [3]; 500 ppm prothioconazole or both, Day 2, listed as natamycin): 10 | Number of moulded wounds/total number of 12 wounds (title: Number of moulded strawberries) (Botrytis cinerea [3]; 500 ppm prothioconazole or both, Day 3): 12/12 | Number of moulded wounds/total number of 12 wounds (title: Number of moulded strawberries) (Botrytis cinerea [3]; 500 ppm prothioconazole or both, Day 3, listed as natamycin): 12 | Observed antifungal activity O (Botrytis cinerea [3]; 500 ppm prothioconazole (row prints 50 ppm) or both, 3 days): 24% | Observed antifungal activity O (Botrytis cinerea [3]; 500 ppm prothioconazole or both, 2 days): 31% | Observed antifungal activity O (Botrytis cinerea [4]; 5 days, natamycin 0.63 ppm, propiconazole 1.00 ppm or both): 0% | Observed antifungal activity O (Botrytis cinerea [4]; 5 days, natamycin 1.25 ppm, propiconazole 0.50 ppm, prothioconazole 0.13 ppm, or natamycin 1.25 ppm with either): 0% | Observed antifungal activity O (Botrytis cinerea [4]; 10 days, natamycin 1.25 ppm, prothioconazole 0.13 ppm or both): 0% | Observed antifungal activity O (Penicillium italicum; 250 ppm natamycin, 150 ppm prothioconazole or both, 13 days): 27% | Observed antifungal activity O (Penicillium italicum; 250 ppm natamycin, 150 ppm prothioconazole or both, 21 days): 6% | Observed antifungal activity O (Penicillium italicum; 250 ppm natamycin, 150 ppm prothioconazole or both, 26 days): 5% | Observed antifungal activity O (Penicillium italicum; 250 ppm natamycin, 150 ppm prothioconazole or both, 29 days): 3% | Observed antifungal activity O (Penicillium italicum; 250 ppm natamycin, 150 ppm prothioconazole or both, 34 days): 0% | Observed antifungal activity O (Penicillium italicum; 500 ppm natamycin, 600 ppm prothioconazole or both, 25 days): 34% | Observed antifungal activity O (Penicillium italicum; 500 ppm natamycin, 600 ppm prothioconazole or both, 28 days): 27% | Observed antifungal activity O (Penicillium italicum; 500 ppm natamycin, 600 ppm prothioconazole or both, 31 days): 24% | Observed antifungal activity O (Penicillium italicum; 500 ppm natamycin, 600 ppm prothioconazole or both, 34 days): 24%
